# Measured values taken from publication PMC11261611, “Tongue-on-a-Chip: Parallel Recording of Sweet and Bitter Receptor Responses to Sequential Injections of Pure and Mixed Sweeteners” (Journal of Agricultural and Food Chemistry, 2024).
# Where a SMILES comes first, the peptide text is derived from it.
# Assays:
# [1] = target: T1, sweet taste receptor TAS1R2/R3 (TAS1R2) (Homo sapiens, UniProt Q7RTX0+Q8TE23); assay: calcium (Twitch2B FRET) response in reverse-transfected HEK293-Gα[…]GUST44 receptor array, flow cell; type: cell-based
# T1 construct: with TAS1R3
# T1 sequence (Q8TE23 20-839): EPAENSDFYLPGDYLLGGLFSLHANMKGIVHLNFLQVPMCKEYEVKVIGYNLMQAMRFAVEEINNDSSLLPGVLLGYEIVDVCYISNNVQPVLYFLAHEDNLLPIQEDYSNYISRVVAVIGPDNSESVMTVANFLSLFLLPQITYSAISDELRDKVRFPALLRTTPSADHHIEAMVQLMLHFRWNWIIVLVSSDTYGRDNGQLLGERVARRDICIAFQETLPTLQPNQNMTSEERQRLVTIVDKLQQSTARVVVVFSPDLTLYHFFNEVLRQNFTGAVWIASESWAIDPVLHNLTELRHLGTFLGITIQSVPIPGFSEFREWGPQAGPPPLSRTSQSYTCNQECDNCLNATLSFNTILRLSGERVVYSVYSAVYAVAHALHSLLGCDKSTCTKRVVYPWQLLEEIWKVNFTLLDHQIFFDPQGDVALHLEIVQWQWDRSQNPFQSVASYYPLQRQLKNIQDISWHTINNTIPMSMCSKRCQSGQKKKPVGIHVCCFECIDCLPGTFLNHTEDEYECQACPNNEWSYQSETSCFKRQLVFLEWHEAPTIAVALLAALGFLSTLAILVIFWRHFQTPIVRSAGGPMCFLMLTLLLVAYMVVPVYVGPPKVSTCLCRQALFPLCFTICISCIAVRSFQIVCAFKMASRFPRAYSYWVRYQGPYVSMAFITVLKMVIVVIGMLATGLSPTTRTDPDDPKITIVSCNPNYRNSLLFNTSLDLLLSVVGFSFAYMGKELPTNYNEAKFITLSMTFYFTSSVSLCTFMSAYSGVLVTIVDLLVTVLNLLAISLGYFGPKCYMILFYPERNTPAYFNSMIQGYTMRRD
# T1 sequence (Q7RTX0 21-852): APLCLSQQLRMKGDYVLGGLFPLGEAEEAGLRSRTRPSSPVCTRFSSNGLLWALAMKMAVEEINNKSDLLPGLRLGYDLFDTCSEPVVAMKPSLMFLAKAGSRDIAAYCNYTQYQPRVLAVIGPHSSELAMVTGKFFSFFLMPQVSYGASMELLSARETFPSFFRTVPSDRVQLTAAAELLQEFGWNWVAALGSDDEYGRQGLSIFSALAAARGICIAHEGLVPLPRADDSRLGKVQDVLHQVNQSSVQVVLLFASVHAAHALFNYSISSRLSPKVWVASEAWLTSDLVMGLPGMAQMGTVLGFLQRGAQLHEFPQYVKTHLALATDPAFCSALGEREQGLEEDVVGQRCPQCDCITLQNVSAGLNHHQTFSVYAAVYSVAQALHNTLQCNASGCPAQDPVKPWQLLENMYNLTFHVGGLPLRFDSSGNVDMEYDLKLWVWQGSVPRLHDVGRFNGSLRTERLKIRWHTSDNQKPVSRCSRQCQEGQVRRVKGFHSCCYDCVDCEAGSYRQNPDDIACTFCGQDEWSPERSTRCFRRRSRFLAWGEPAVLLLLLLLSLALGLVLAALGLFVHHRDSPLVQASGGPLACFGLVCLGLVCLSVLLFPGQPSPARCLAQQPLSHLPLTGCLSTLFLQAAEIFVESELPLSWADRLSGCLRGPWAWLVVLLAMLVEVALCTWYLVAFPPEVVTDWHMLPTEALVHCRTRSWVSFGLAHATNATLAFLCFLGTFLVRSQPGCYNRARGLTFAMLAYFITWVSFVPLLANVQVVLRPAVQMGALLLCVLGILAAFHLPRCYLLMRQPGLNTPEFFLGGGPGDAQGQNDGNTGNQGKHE
# TAS2R8 = target: T2, TAS2R8 (Homo sapiens, UniProt Q9NYW2); settings: hek293 cells
# T2 sequence (Q9NYW2 1-309): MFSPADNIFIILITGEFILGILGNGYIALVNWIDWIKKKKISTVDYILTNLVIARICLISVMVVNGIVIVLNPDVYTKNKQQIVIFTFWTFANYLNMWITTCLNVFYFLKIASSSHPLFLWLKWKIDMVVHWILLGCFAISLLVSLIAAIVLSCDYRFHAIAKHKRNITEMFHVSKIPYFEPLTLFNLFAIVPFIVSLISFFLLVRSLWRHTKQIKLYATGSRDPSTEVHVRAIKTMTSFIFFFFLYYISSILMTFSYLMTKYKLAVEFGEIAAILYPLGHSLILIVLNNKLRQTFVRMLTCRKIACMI
# TAS2R43 = target: T3, TAS2R43 (Homo sapiens, UniProt P59537); settings: hek293 cells
# T3 sequence (P59537 1-309): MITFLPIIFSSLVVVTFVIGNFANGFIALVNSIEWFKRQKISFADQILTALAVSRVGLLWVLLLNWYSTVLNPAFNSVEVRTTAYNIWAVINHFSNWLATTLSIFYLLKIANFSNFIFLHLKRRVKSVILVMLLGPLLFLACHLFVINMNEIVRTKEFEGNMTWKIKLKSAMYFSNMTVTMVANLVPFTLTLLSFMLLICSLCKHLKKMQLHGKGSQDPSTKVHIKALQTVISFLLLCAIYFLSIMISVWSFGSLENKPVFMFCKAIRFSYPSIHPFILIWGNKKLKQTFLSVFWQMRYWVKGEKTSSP
# TAS2R31 = TAS2R31 (Homo sapiens, UniProt P59538); settings: hek293 cells
# Sequence of TAS2R31 (P59538 whole entry): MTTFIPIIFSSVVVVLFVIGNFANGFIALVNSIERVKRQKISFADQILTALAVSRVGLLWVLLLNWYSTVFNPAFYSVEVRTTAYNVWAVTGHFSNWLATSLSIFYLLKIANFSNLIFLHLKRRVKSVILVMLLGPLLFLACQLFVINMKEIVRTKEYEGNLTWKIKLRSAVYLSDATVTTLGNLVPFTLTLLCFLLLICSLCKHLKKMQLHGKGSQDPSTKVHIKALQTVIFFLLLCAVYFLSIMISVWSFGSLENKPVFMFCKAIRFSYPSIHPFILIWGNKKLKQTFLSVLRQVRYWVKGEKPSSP
# [2] = target: T1, sweet taste receptor TAS1R2/R3 (TAS1R2); assay: calcium (Twitch2B FRET) response in reverse-transfected HEK293-Gα[…]GUST44 receptor array, normalized against umami receptor signal; type: cell-based
smiles,measurement,setting,value
COC(=O)[C@H](Cc1ccccc1)NC(=O)[C@H](CC(=O)O)NCCCc1ccc(OC)c(O)c1 [advantame],EC50,[1],~1.5 µM
COC(=O)[C@H](Cc1ccccc1)NC(=O)[C@@H](N)CC(=O)O [aspartame] (H-Asp-Phe-OMe),EC50,[1],625 µM
O=S(=O)(O)NC1CCCCC1 [cyclamate],% signal reduction,TAS2R8,33 % signal reduction
same,% signal reduction,TAS2R43,92 % signal reduction
same,% signal reduction,TAS2R31,48 % signal reduction
OC[C@H]1O[C@@](CO)(O[C@H]2O[C@H](CO)[C@@H](O)[C@H](O)[C@H]2O)[C@@H](O)[C@@H]1O [sucrose],EC50,[2],35000 µM
